Columns and labels:
[1] = Acute toxicity, intravenous, mice; assay type: in vivo; conditions: mouse, in vivo; intravenous, within 24 hours; read-out: Evaluated LD50-range
female NMRI-albino mice = assay: Acute toxicity, intravenous, mice; assay type: in vivo; conditions: within 24 hours
mongrel cats [2] = assay: Inotropic and heart-circulatory effectiveness on narcotised cats, intraduodenal; assay type: in vivo, cat; conditions: 5 mg/kg intraduodenal
narcotised guinea pigs = assay: Blood pressure experiments on guinea pigs, i.v.; assay type: in vivo, guinea pig
[3] = tested on: isolated guinea pig hearts; assay: Experiments on Langendorff hearts (coronary flowthrough, inotropism, frequency); conditions: Cavia porcellus, read-out: flowthrough, percentage change with regard to the initial value
Description: After reaching the stationary state in the 30th minute, the hearts were each perfused with 50 ml. tyrode solution with a content of test substance of, in each case, 25 μg./ml. Each test substance was tested on 3-6 hearts.
In each case, there was measured the inotropism, the flowthrough and the frequency, whereby the values given in Table I are average values of the percentage changes in comparison with the initial values.

mongrel cats [4] = assay: Inotropic and heart-circulatory effectiveness on narcotised cats, intravenous; assay type: in vivo, cat; conditions: 6 animals
[5] = 0.25 mg/kg i.v., before administration

O=[N+]([O-])O[C@H]1CO[C@H]2[C@@H]1OC[C@@H]2NCC(O)COc1cccc(C(F)(F)F)c1 (stereo partly drawn) [Example 52, 5-[2-Hydroxy-3-(3-trifluoromethylphenoxy)-propylamino]-5-desoxy-1.4;3.6-dianhydro-L-iditol 2-nitrate]
LD50 at 24 h [1]: 100 to 200 mg/kg | Frequency of death (female NMRI-albino mice; 100 mg/kg i.v.): 1/3 | Frequency of death (female NMRI-albino mice; 200 mg/kg i.v.): 6/6 | blood pressure (mongrel cats [2]; 0 min after admin.): 113.8 ± 5.8 mm.Hg | dp/dt (inotropism) (mongrel cats [2]; 0 min after admin.): 6540 ± 631 mm.Hg/sec | heart frequency (mongrel cats [2]; 0 min after admin.): 209.6 ± 15.7 min⁻¹ | blood pressure (mongrel cats [2]; 10 min after admin.): 100.4 mm.Hg | blood pressure Δ (mongrel cats [2]; 10 min after admin.): -13.4 mm.Hg | dp/dt (inotropism) (mongrel cats [2]; 10 min after admin.): 6200 ± 374 mm.Hg/sec | dp/dt (inotropism) Δ (mongrel cats [2]; 10 min after admin.): -340 mm.Hg/sec | heart frequency (mongrel cats [2]; 10 min after admin.): 212.4 ± 13.8 min⁻¹ | blood pressure (mongrel cats [2]; 30 min after admin.): 95.6 ± 9.9 mm.Hg | blood pressure Δ (mongrel cats [2]; 30 min after admin.): -18.2 mm.Hg | dp/dt (inotropism) (mongrel cats [2]; 30 min after admin.): 6120 ± 270 mm.Hg/sec | dp/dt (inotropism) Δ (mongrel cats [2]; 30 min after admin.): -440 mm.Hg/sec | heart frequency (mongrel cats [2]; 30 min after admin.): 212.8 ± 13.1 min⁻¹ | blood pressure (mongrel cats [2]; 60 min after admin.): 95.8 ± 8.0 mm.Hg | blood pressure Δ (mongrel cats [2]; 60 min after admin.): -18.0 mm.Hg | dp/dt (inotropism) (mongrel cats [2]; 60 min after admin.): 5480 ± 314 mm.Hg/sec | dp/dt (inotropism) Δ (mongrel cats [2]; 60 min after admin.): -1060 mm.Hg/sec | heart frequency (mongrel cats [2]; 60 min after admin.): 216.0 ± 12.3 min⁻¹ | blood pressure (mongrel cats [2]; 120 min after admin.): 98.4 ± 9.0 mm.Hg | blood pressure Δ (mongrel cats [2]; 120 min after admin.): -15.4 mm.Hg | dp/dt (inotropism) (mongrel cats [2]; 120 min after admin.): 5460 ± 768 mm.Hg/sec | dp/dt (inotropism) Δ (mongrel cats [2]; 120 min after admin.): -1080 mm.Hg/sec | heart frequency (mongrel cats [2]; 120 min after admin.): 214.4 ± 11.6 min⁻¹ | blood pressure after (narcotised guinea pigs; 0.25 mg/kg i.v.): 60.50 ± 1.32 mm.Hg | blood pressure Δ (narcotised guinea pigs; 0.25 mg/kg i.v.): -5.00 mm.Hg | blood pressure before (narcotised guinea pigs; [5]): 65.50 ± 1.50 mm.Hg | blood pressure after (narcotised guinea pigs; 1.00 mg/kg i.v.): 49.25 ± 4.37 mm.Hg | blood pressure Δ (narcotised guinea pigs; 1.00 mg/kg i.v.): -11.75 mm.Hg | blood pressure after (narcotised guinea pigs; 2.50 mg/kg i.v.): 39.00 ± 4.38 mm.Hg | blood pressure Δ (narcotised guinea pigs; 2.50 mg/kg i.v.): -17.75 mm.Hg | activation at 25 µg/mL [3]: 214% | blood pressure before (mongrel cats [4]; [5]): 91.7 mm.Hg | dp/dt (inotropism) before (mongrel cats [4]; [5]): 6150 mm.Hg/sec | heart frequency before (mongrel cats [4]; [5]): 216.7 min⁻¹ | blood pressure WD (mongrel cats [4]; 0.25 mg/kg i.v.): 5.6 min | blood pressure after (mongrel cats [4]; 0.25 mg/kg i.v.): 77.2 mm.Hg | blood pressure Δ (mongrel cats [4]; 0.25 mg/kg i.v.): -14.5 mm.Hg | dp/dt (inotropism) after (mongrel cats [4]; 0.25 mg/kg i.v.): 5517 mm.Hg/sec | dp/dt (inotropism) Δ (mongrel cats [4]; 0.25 mg/kg i.v.): -633 mm.Hg/sec | dp/dt WD (mongrel cats [4]; 0.25 mg/kg i.v.): 4.2 min | heart frequency after (mongrel cats [4]; 0.25 mg/kg i.v.): 216.7 min⁻¹ | heart frequency Δ (mongrel cats [4]; 0.25 mg/kg i.v.): 0 min⁻¹ | blood pressure WD (mongrel cats [4]; 0.50 mg/kg i.v.): 11.7 min | blood pressure after (mongrel cats [4]; 0.50 mg/kg i.v.): 74.8 mm.Hg | blood pressure Δ (mongrel cats [4]; 0.50 mg/kg i.v.): -19.9 mm.Hg | dp/dt (inotropism) after (mongrel cats [4]; 0.50 mg/kg i.v.): 5133 mm.Hg/sec | dp/dt (inotropism) Δ (mongrel cats [4]; 0.50 mg/kg i.v.): -850 mm.Hg/sec | dp/dt WD (mongrel cats [4]; 0.50 mg/kg i.v.): 10.5 min | heart frequency after (mongrel cats [4]; 0.50 mg/kg i.v.): 217.0 min⁻¹ | heart frequency Δ (mongrel cats [4]; 0.50 mg/kg i.v.): 0 min⁻¹ | blood pressure WD (mongrel cats [4]; 1.00 mg/kg i.v.): 14.7 min | blood pressure after (mongrel cats [4]; 1.00 mg/kg i.v.): 69.2 mm.Hg | blood pressure Δ (mongrel cats [4]; 1.00 mg/kg i.v.): -26.5 mm.Hg | dp/dt (inotropism) after (mongrel cats [4]; 1.00 mg/kg i.v.): 4250 mm.Hg/sec | dp/dt (inotropism) Δ (mongrel cats [4]; 1.00 mg/kg i.v.): -1333 mm.Hg/sec | dp/dt WD (mongrel cats [4]; 1.00 mg/kg i.v.): 15.3 min | heart frequency after (mongrel cats [4]; 1.00 mg/kg i.v.): 217.3 min⁻¹ | heart frequency Δ (mongrel cats [4]; 1.00 mg/kg i.v.): -1.0 min⁻¹ | blood pressure WD (mongrel cats [4]; 2.50 mg/kg i.v.): > 10 min | blood pressure after (mongrel cats [4]; 2.50 mg/kg i.v.): 60.5 mm.Hg | blood pressure Δ (mongrel cats [4]; 2.50 mg/kg i.v.): -34.5 mm.Hg | dp/dt (inotropism) after (mongrel cats [4]; 2.50 mg/kg i.v.): 2733 mm.Hg/sec | dp/dt (inotropism) Δ (mongrel cats [4]; 2.50 mg/kg i.v.): -2500 mm.Hg/sec | dp/dt WD (mongrel cats [4]; 2.50 mg/kg i.v.): > 10 min | heart frequency after (mongrel cats [4]; 2.50 mg/kg i.v.): 204.0 min⁻¹ | heart frequency Δ (mongrel cats [4]; 2.50 mg/kg i.v.): -14.3 min⁻¹

Reference: patent US4363805A, “Aminodesoxy-1.4;3.6-dianhydrohexitol nitrates and pharmaceutical composition” (Firma Willmar Schwabe, priority 1980, dated 1982)
